Results reported in article PMC11124387, “A Reliable Multifaceted Solution against Foodborne Viral Infections: The Case of RiLK1 Decapeptide” (Molecules, 2024).
“And” between values parts separate entries of the source, which are not always exact repeats. Identical values can stand only once. Like-named read-outs stand apart in the source and are kept apart here. Where a SMILES comes first, the peptide text is derived from it.

Tests used:
[1] = tested on: Murine norovirus strain 1 (MNV-1); assay: Virus pre-treatment assay, MNV-1; assay type: cell-based; settings: virus pre-treatment: peptide 80 µM with virus 1 h at RT, mean ± SD; for Viral Titre: then on RAW 264.7 cells 1 h 37 °C
Description: Four sets of experiments were performed to suppose the effect of RiLK1 and RiLK3 on HAV and MNV-1 [29]. To this aim, 80 µM solutions of the two peptides and HAV and MNV-1 suspensions at a final concentration of 4.7 ± 0.2 log TCID50/mL and 4.5 ± 0.2 log TCID50/mL, respectively, were used in the following experiments: • i) A virus pre-treatment assay to assess the direct interaction between the virus and peptide: the incubation of the peptide with viral suspension for 1 h at room temperature was carried out, followed by its incubation on cells for 1 h at 37 °C. Then, cell monolayers were washed twice with PBS and incubated with 500 µL DMEM/MEM supplemented with 2% of FBS to determine the TCID50/mL. • ii) A cell pre-treatment assay to assess the interaction between the peptide and cells before the viral infection: cell monolayers were preincubated with 100 µL of peptide solution for 1 h at 37 °C, followed by the removal of the peptide, addition to cells of viral suspensions for 1 h at 37 °C, washing step, and culture with 2% FBS DMEM/MEM. • iii) An attachment assay to assess the possible action of the peptide at the stage of virus attachment to cells: cell monolayers were incubated with 100 µL of a suspension containing both the peptide and virus and were incubated for 1 h at 4 °C. […]
(§1) For each treatment, the average and standard deviation of the triplicate analyses were calculated. The virucidal effects of AMPs was assessed by calculating the log reduction value (LRV), i.e., the difference between the infectious titer (log-transformed) of untreated versus treated samples. The statistical significance of differences between treated and untreated samples was determined through one-way analysis of variance (ANOVA) with Bonferroni post hoc comparisons, with a significance level of p < 0.05 (GraphPad Prism v9.5.0, software San Diego, CA, USA).

[2] = tested on: Murine norovirus strain 1 (MNV-1); assay: Attachment assay, MNV-1; assay type: cell-based; settings: attachment: cells with peptide 80 µM and virus together 1 h at 4 °C, mean ± SD
Description: (§2) Four sets of experiments were performed to suppose the effect of RiLK1 and RiLK3 on HAV and MNV-1 [29]. To this aim, 80 µM solutions of the two peptides and HAV and MNV-1 suspensions at a final concentration of 4.7 ± 0.2 log TCID50/mL and 4.5 ± 0.2 log TCID50/mL, respectively, were used in the following experiments: • i) A virus pre-treatment assay to assess the direct interaction between the virus and peptide: the incubation of the peptide with viral suspension for 1 h at room temperature was carried out, followed by its incubation on cells for 1 h at 37 °C. Then, cell monolayers were washed twice with PBS and incubated with 500 µL DMEM/MEM supplemented with 2% of FBS to determine the TCID50/mL. • ii) A cell pre-treatment assay to assess the interaction between the peptide and cells before the viral infection: cell monolayers were preincubated with 100 µL of peptide solution for 1 h at 37 °C, followed by the removal of the peptide, addition to cells of viral suspensions for 1 h at 37 °C, washing step, and culture with 2% FBS DMEM/MEM. • iii) An attachment assay to assess the possible action of the peptide at the stage of virus attachment to cells: cell monolayers were incubated with 100 µL of a suspension containing both the peptide and virus and were incubated for 1 h at 4 °C. Subsequently, the cell monolayers were washed with PBS and incubated for 1 h at 37 °C with a culture medium followed by a washing step and the addition of culture with 2% FBS DMEM/MEM. • iv) An entry assay to assess the possible action of the peptide at the stage of virus internalization into cells: cell monolayers were incubated with 100 µL of the viral suspension for 1 h at 4 °C, followed by the addition of the peptide and incubation for 1 h at 37 °C. Cells were then washed with PBS, and 2% FBS DMEM/MEM was finally added.
(§3) Untreated viral suspensions and peptide solutions, incubated at the same conditions, were used as controls.
as §1

[3] = tested on: Hepatitis A virus (HAV) strain HM-175; settings: cited from earlier work; for LRV (log reduction value) / Viral Titre after Treatment: RT (20 ± 2 °C), mean ± SD, ref [46] (table footnote; text b35 cites [45])
From the text: Table 2 In vitro effect of peptides on HAV. | column: Viral Titre after Treatment (logTCID50/mL ± SD) / RT; LRV (logTCID50/mL ± SD) / RT || In a previous work, the antiviral effects of RiLK1 and RiLK3 were already investigated against hepatitis A virus (HAV) following treatment at room temperature, and the obtained results are reported in Table 2. Briefly, RiLK1 was able to reduce HAV infectivity by more than 1 log in comparison with the untreated virus, displaying a log reduction value (LRV) of 1.4 at 80 μM and 1.1 at 40 μM concentration. […] Therefore, based on these preliminary results, further insights into the virucidal activity ...

[4] = tested on: Hepatitis A virus (HAV) strain HM-175; assay: Cell pre-treatment assay, HAV; assay type: cell-based; settings: cell pre-treatment: cells with peptide 80 µM 1 h 37 °C, peptide removed, then virus 1 h 37 °C, mean ± SD
Description: as §2, §3, §1

[5] = tested on: Hepatitis A virus (HAV) strain HM-175; assay: Attachment assay, HAV; assay type: cell-based; settings: attachment: cells with peptide 80 µM and virus together 1 h at 4 °C, mean ± SD
Description: as §2, §3, §1

Campylobacter jejuni = assay type: cell-based; settings: peptide 40 and 80 µM, 6 h at 37 °C
From the text: The monophasic variant of Salmonella Typhimurium, Salmonella Napoli, and Campylobacter jejuni were isolated by the Laboratory of Microbiological Food Control—Department of Food Microbiology of the Istituto Zooprofilattico Sperimentale del Mezzogiorno in Portici (Naples, Italy) in raw and processed foodstuffs of animal origin. Specifically, the monophasic variant of S. Typhimurium and S. Napoli were isolated from bivalve mollusks, while C. jejuni was isolated from poultry meat. Bacterial cells were cultured at 37 °C in the appropriate culture media (S. Typhimurium and S. Napoli in buffered peptone water (Thermo Fisher, Milan, Italy) and C. jejuni in Bolton Broth (Oxoid, Madrid, Spain)) until collection and then diluted in fresh broth to a final concentration of 1.5 × 10^3 colony forming units (CFUs)/mL. Thereafter, peptide stock solutions in DMSO were added to the bacterial suspension at the same concentrations used in the virucidal assays (40 and 80 µM) and incubated at 37 °C for 6 h. Samples containing only cell suspension and DMSO were used as controls. […]

Row | Molecule | Viral Titre [1] | LRV [2] | Viral Titre [2] | LRV (log reduction value) ([3]; HAV + peptide 40 µM) | Viral Titre after Treatment ([3]; HAV + peptide 40 µM) | LRV (log reduction value) ([3]; HAV + peptide 80 µM) | Viral Titre after Treatment ([3]; HAV + peptide 80 µM) | reduction of HAV infectivity in comparison with the untreated virus ([3]; room temperature, ref [45]) | LRV [4] | Viral Titre [4] | LRV [5] | Viral Titre [5] | inhibitory activity against Campylobacter jejuni (in words) (Campylobacter jejuni) | LRV ([1]; then on cells 1 h 37 °C) | inhibition of HAV infection (in words) ([3]; 40 and 80 µM, room temperature, ref [45])
1 | CC[C@H](C)[C@H](NC(=O)[C@H](CCCNC(=N)N)NC(=O)[C@@H](NC(=O)[C@H](Cc1c[nH]c2ccccc12)NC(=O)[C@H](CCCCN)NC(=O)[C@H](CC(C)C)NC(=O)[C@@H](N)CCCNC(=N)N)C(C)C)C(=O)N[C@@H](Cc1c[nH]c2ccccc12)C(=O)N[C@@H](CCCNC(=N)N)C(=O)N[C@@H](CCCNC(=N)N)C(N)=O [RiLK1] (H-RLKWVRIWRR-NH2; N-terminus assumed) | 3.3 ± 0.2 logTCID50/mL | 1.4 logTCID50/mL and 1.4 ± 0.4 logTCID50/mL | 3.1 ± 0.2 logTCID50/mL | 1.1 logTCID50/mL and 1.1 ± 0.3 *^,a logTCID50/mL | 3.6 ± 0.1 *^,a logTCID50/mL | 1.4 logTCID50/mL and 1.4 ± 0.4 *^,a logTCID50/mL | 3.3 ± 0.2 *^,a logTCID50/mL | more than 1 log | 0.1 ± 0.3 logTCID50/mL | 4.6 ± 0.1 logTCID50/mL | 1.4 logTCID50/mL and 1.4 ± 0.4 logTCID50/mL | 3.3 ± 0.2 logTCID50/mL |  |  | 
2 | KLRWVKIWKK-NH2 [RiLK30, newly designed RiLK1 derivative, Arg residues exchanged with Lys and Lys3 with Arg] |  |  |  |  |  |  |  |  |  |  |  |  | the most ineffective |  | 
3 | RLRWVRIWRR-NH2 [RiLK3, RiLK1 analog differing by one amino acid (Lys replaced with Arg), C-terminally amidated] | 4.5 ± 0.1 logTCID50/mL | 1.0 logTCID50/mL and 1.0 ± 0.3 logTCID50/mL | 3.5 ± 0.1 logTCID50/mL | 0.3 ± 0.3 ^a logTCID50/mL | 4.4 ± 0.1 ^a logTCID50/mL | 0.3 ± 0.3 ^a logTCID50/mL | 4.4 ± 0.1 ^a logTCID50/mL |  | 0.9 logTCID50/mL and 0.9 ± 0.4 logTCID50/mL | 3.8 ± 0.2 logTCID50/mL | 1.0 logTCID50/mL and 1.0 ± 0.4 logTCID50/mL | 3.7 ± 0.2 logTCID50/mL |  | 0 ± 0.3 logTCID50/mL | unable to inhibit HAV infection
